{"source": "patent US11866704B2", "about": "“Nucleic acid molecules and uses thereof” (Macau University of Science and Technology, priority 2020, dated 2024)", "molecules": {"B1": {"name": "tRNA-Val(UAC): tRNA purified from Escherichia coli MRE600 total tRNA, SEQ ID NO: 237 (nucleic acid, listed as Escherichia coli)", "chain": "GGGUGAUUAGCUCAGCDGGGAGAGCACCUCCCUUACAAGGAGGGGGUCGGCGGUNCGAUCCCGUCAUCACCCACCA", "modifications": "expressed or natural sequence"}, "B2": {"name": "tRNA-Leu(CAG): tRNA purified from Escherichia coli MRE600 total tRNA, SEQ ID NO: 218 (nucleic acid, listed as Escherichia coli)", "chain": "GCGAAGGUGGCGGAANNGGNAGACGCGCUAGCUUCAGGNGNUAGUGUCCUUACGGACGUGGGGGUNCAAGUCCCCCCCCUCGCACCA", "modifications": "expressed or natural sequence"}}, "key": {"[1]": {"system": "LoVo colorectal adenocarcinoma cell line", "assay": "MTT cytotoxicity assay on LoVo cells", "format": "cell-based", "conditions": "Homo sapiens, MTT, 48 h treatment", "description": "(§1) HCT-8, fluorouracil-resistant HCT-8, fluorouracil-resistant LoVo cell lines were cultured in RPMI Medium 1640 medium containing 10% FBS and 1% penicillin/streptomycin. LoVo cell line was cultured in F-12K medium containing 10% FBS and 1% penicillin/streptomycin. All cell lines above were cultured at humidified atmosphere containing 5% CO2 at 37° C.\n(§2) In the cytotoxicity assay, exponentially growing cells of each cancer cell line were plated in 96-well microplate at a density of 5000 cells per well in 100 μL of culture medium and allowed to adhere for 24 h before treatment. Serial concentrations of RNA molecules obtained in Example 1 to 4 in a mixture containing a gene delivery carrier, i.e. Lipofectamine™ RNAiMAX Transfection Reagent (Thermo Fisher Scientific, U.S.A.) were then added to the cells. After treated for 48 h, MTT solution (50 μL per well, 1 mg/mL solution) was added to each well and incubated for 4 h at 37° C. Subsequently, 200 μL dimethyl sulfoxide (DMSO) were added and the optical densities of the resulting solutions were calorimetrically determined at 570 nm using a SpectraMax 190 microplate reader (Molecular Devices, Sunnyvale, CA, U.S.A). Dose-response curves were obtained, and the IC50 values were calculated by GraphPad Prism 5 (GraphPad, La Jolla, CA, USA). Each experiment was carried out for three times. IC50 results were expressed as means±standard deviation."}, "[2]": {"system": "LoVo/5-FU (5-FU-resistant strain of LoVo)", "assay": "MTT cytotoxicity assay on LoVo/5-FU cells", "format": "cell-based", "conditions": "Homo sapiens, MTT, 48 h treatment", "description": "as §1, §2"}, "[3]": {"system": "HCT-8 human ileocecal colorectal adenocarcinoma cell line", "assay": "MTT cytotoxicity assay on HCT-8 cells", "format": "cell-based", "conditions": "for cell viability of HCT-8 cells (FIG. 6A): 50 nM, 48 h, vs control and RNAiMAX group", "description": "as §1, §2"}, "[4]": {"system": "HCT-8/5-FU (5-FU-resistant strain of HCT-8)", "assay": "MTT cytotoxicity assay on HCT-8/5-FU cells", "format": "cell-based, human", "conditions": "Homo sapiens, MTT, 48 h treatment", "description": "as §1, §2"}}, "data": [{"molecule": "O=c1[nH]cc(F)c(=O)[nH]1", "note": "[5-FU, fluorouracil, reference compound]", "values": [{"measurement": "IC50", "setting": "[1]", "value": 63.9, "unit": "µM"}, {"measurement": "IC50", "setting": "[2]", "value": 133, "unit": "µM"}, {"measurement": "IC50", "setting": "[3]; Homo sapiens, HCT-8, MTT, 48 h treatment", "value": 41.4, "unit": "µM"}, {"measurement": "IC50", "setting": "[4]", "value": 171, "unit": "µM"}]}, {"molecule": "EC41 mimic: 22 bp dsRNA; antisense SEQ ID NO: 47 GGGUGAUUAGCUCAGCUGGGAG, sense SEQ ID NO: 141 CUCCCAGCUGAGCUAAUCACCC; 5′-t of tRNA-Val(UAC) (listed as RNA, chemistry not given here) [22 bp dsRNA; 5′-t of tRNA-Val(UAC)]", "values": [{"measurement": "cell viability of HCT-8 cells (FIG. 6A)", "setting": "[3]", "value": "effective to colorectal cancer cells"}]}, {"molecule": "EC42 mimic: 22 bp dsRNA; antisense SEQ ID NO: 48 UCGAUCCCGUCAUCACCCACCA, sense SEQ ID NO: 142 UGGUGGGUGAUGACGGGAUCGA; 3′-t of tRNA-Val(UAC) (listed as RNA, chemistry not given here) [22 bp dsRNA; 3′-t of tRNA-Val(UAC)]", "values": [{"measurement": "cell viability of HCT-8 cells (FIG. 6A)", "setting": "[3]", "value": "effective to colorectal cancer cells"}]}, {"molecule": "EC85 mimic: 22 bp dsRNA; antisense SEQ ID NO: 91 GCGAAGGUGGCGGAAUUGGUAG, sense SEQ ID NO: 185 CUACCAAUUCCGCCACCUUCGC; 5′-t of tRNA-Leu(CAG) (listed as RNA, chemistry not given here) [22 bp dsRNA; 5′-t of tRNA-Leu(CAG)]", "values": [{"measurement": "cell viability of HCT-8 cells (FIG. 6A)", "setting": "[3]", "value": "effective to colorectal cancer cells"}]}, {"molecule": "EC86 mimic: 22 bp dsRNA; antisense SEQ ID NO: 92 UCAAGUCCCCCCCCUCGCACCA, sense SEQ ID NO: 186 UGGUGCGAGGGGGGGGACUUGA; 3′-t of tRNA-Leu(CAG) (listed as RNA, chemistry not given here) [22 bp dsRNA; 3′-t of tRNA-Leu(CAG)]", "values": [{"measurement": "cell viability of HCT-8 cells (FIG. 6A)", "setting": "[3]", "value": "effective to colorectal cancer cells"}]}, {"molecule": "B1", "values": [{"measurement": "cell viability of HCT-8 cells (FIG. 6A)", "setting": "[3]", "value": "effective to colorectal cancer cells"}]}, {"molecule": "B2", "values": [{"measurement": "cell viability of HCT-8 cells (FIG. 6A)", "setting": "[3]", "value": "effective to colorectal cancer cells"}]}]}
